From ChEMBL document CHEMBL1201862, “PubChem BioAssay data set” (2004)
Activity calls are given as the source filed them.

Legend:
[1] = target: T1, DNA dC->dU-editing enzyme APOBEC-3G (Homo sapiens, UniProt Q9HC16); experiment: inhibition of APOBEC3G ssDNA deamination – biochemical, fluorescence, single-stranded DNA substrate, SAR follow-up (AID 602136); format: functional; details: read-out: IC50_Mean
[2] = target: T2, DNA dC->dU-editing enzyme APOBEC-3A (Homo sapiens, UniProt P31941); experiment: SAR analysis of small molecule inhibitors of APOBEC3A DNA Deaminase via a fluorescence-based single-stranded DNA deaminase assay.; format: functional; details: read-out: IC50_Mean
T2 sequence (P31941 whole entry): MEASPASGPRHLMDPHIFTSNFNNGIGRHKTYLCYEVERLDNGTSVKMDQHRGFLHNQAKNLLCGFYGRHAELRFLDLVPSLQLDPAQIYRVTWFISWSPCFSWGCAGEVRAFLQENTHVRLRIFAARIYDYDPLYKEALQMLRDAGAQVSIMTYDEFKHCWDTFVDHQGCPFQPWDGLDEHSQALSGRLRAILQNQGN

[3] = target: T2, DNA dC->dU-editing enzyme APOBEC-3A; experiment: SAR analysis of small molecule inhibitors of APOBEC3A DNA Deaminase via a fluorescence-based single-stranded DNA deaminase assay - Set 2.; format: functional; details: read-out: IC50_Mean
[4] = target: T1, DNA dC->dU-editing enzyme APOBEC-3G; experiment: SAR analysis of small molecule inhibitors of APOBEC3G DNA Deaminase via a fluorescence-based single-stranded DNA deaminase assay - Set 2.; format: functional; details: read-out: IC50_Mean
[5] = Luminescence Cell-Based Dose Retest to Confirm Inhibitors of Cancer Stem Cells. [Related pubchem assays (depositor defined):AID2717, AID2721]; format: functional; details: Homo sapiens
Melanocortin receptor 4 = Melanocortin receptor 4 (Homo sapiens, UniProt P32245); experiment: inhibitors of MC4R cAMP signaling – cell-based, TR-FRET, biased antagonists, dose response (AID 602298); format: functional;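 also: antagonist potency against agonist-stimulated cAMP production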
Melanocortin receptor 4, sequence (P32245 whole entry): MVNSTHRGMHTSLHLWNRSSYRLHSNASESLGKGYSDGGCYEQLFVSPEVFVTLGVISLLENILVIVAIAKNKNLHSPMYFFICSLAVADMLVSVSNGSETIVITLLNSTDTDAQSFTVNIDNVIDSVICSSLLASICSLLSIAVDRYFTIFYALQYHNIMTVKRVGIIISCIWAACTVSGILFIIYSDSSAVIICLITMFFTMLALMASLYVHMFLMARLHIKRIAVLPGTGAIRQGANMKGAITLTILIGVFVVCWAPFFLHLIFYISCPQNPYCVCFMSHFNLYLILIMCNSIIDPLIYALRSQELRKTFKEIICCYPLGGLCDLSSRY

[6] = cAMP pathway inhibition in counterscreen cell line – TR-FRET cAMP detection, counter-screen for MC4R biased antagonist project, dose response (AID 602305); format: functional, cell-based;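 also: U2OS cells stimulated with forskolin near its EC80 as the cAMP inducer; potency is for inhibition of forskolin-stimulated cAMP signaling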
Aurora kinase A = Aurora kinase A (Homo sapiens, UniProt O14965); format: functional;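 also: value from the Navigating the Kinome kinase panel profiling, panel entry STK6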
Aurora kinase A, sequence (O14965 whole entry): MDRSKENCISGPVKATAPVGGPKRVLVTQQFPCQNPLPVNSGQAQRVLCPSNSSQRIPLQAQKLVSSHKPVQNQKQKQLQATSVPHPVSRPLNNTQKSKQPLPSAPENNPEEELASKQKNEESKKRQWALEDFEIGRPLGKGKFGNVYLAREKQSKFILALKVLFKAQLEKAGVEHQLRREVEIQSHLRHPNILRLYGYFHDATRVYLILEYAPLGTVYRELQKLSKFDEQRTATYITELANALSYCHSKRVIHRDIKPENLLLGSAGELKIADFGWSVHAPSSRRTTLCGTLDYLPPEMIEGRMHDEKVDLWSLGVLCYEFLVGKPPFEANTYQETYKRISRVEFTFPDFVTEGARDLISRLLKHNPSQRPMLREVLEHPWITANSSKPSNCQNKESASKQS

[7] = target: Vascular endothelial growth factor receptor 2 (Homo sapiens, UniProt P35968); format: functional
Aurora kinase B = Aurora kinase B (Homo sapiens, UniProt Q96GD4); format: functional
Aurora kinase B, sequence (Q96GD4 whole entry): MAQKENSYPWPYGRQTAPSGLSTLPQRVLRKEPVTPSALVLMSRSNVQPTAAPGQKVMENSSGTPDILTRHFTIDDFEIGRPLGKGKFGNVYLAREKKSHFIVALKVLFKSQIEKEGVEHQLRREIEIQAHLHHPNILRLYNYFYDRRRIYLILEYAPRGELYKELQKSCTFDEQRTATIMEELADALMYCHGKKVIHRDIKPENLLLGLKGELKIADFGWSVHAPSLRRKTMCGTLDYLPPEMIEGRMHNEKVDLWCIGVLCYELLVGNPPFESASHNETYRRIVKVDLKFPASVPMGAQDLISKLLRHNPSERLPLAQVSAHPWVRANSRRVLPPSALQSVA

[8] = target: Protein disulfide-isomerase (Homo sapiens, UniProt P07237); experiment: inhibition of PDI-driven insulin aggregation – biochemical, turbidity, absorbance, cherry-picked samples, dose response (AID 602350); format: functional
Protein disulfide-isomerase, sequence (P07237 whole entry): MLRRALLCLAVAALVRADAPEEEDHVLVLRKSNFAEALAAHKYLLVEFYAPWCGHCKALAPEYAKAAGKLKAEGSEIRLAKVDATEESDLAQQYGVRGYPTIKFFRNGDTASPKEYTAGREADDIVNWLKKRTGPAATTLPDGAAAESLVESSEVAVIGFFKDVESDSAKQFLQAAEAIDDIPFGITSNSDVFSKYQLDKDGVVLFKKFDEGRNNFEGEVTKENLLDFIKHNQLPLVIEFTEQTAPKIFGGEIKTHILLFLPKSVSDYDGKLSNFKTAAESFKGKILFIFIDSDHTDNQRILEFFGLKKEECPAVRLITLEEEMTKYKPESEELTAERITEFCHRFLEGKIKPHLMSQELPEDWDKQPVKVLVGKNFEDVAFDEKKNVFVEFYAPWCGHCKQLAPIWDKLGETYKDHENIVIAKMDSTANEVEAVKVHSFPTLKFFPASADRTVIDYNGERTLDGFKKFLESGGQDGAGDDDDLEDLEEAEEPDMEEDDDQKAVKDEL

[9] = target: Cyclin-dependent kinase 19 (Homo sapiens, UniProt Q9BWU1); experiment: Navigating the Kinome. Panel member name: CDC2L6; format: functional
Cyclin-dependent kinase 19, sequence (Q9BWU1 whole entry): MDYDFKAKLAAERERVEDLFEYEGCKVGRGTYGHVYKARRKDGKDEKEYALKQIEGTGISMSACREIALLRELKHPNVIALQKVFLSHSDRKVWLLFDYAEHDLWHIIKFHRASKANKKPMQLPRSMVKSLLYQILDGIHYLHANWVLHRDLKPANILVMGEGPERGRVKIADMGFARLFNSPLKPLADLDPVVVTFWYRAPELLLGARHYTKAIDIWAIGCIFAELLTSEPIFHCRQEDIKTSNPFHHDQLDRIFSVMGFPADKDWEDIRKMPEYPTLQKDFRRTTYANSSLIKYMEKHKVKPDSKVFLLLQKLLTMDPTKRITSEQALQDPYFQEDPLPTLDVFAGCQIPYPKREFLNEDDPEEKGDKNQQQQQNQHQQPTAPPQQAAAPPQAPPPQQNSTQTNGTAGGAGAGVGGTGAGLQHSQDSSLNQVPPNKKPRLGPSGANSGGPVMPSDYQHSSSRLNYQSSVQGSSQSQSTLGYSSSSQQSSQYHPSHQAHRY

[10] = target: Inhibitor of nuclear factor kappa-B kinase subunit epsilon (Homo sapiens, UniProt Q14164); experiment: Navigating the Kinome. Panel member name: IKBKE; format: functional
[11] = target: Melanin-concentrating hormone receptor 1 (Homo sapiens, UniProt Q99705); experiment: Late-stage fluorescence-based counterscreen for antagonists of the G-protein coupled receptor 7 (GPR7): cell-based dose response assay to identify antagonists of the melanin-concentrating hormone receptor 1 (MCHR1) Set 6.; format: functional
Melanin-concentrating hormone receptor 1, sequence (Q99705 whole entry): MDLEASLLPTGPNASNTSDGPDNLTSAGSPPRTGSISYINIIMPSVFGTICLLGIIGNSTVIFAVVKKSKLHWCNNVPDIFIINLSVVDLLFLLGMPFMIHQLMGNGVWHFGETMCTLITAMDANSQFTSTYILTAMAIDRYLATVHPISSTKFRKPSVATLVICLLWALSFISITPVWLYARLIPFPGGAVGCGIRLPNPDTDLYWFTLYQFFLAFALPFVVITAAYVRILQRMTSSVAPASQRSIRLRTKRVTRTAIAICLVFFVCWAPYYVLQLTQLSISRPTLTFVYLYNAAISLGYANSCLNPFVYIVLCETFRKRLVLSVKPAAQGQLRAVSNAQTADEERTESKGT

[12] = target: Neuropeptides B/W receptor type 1 (Homo sapiens, UniProt P48145); experiment: human NPBW1 receptor blockade, IC50 – cell-based, fluorescence, dose response, set 6, late-stage follow-up (AID 588583); format: functional
Neuropeptides B/W receptor type 1, sequence (P48145 whole entry): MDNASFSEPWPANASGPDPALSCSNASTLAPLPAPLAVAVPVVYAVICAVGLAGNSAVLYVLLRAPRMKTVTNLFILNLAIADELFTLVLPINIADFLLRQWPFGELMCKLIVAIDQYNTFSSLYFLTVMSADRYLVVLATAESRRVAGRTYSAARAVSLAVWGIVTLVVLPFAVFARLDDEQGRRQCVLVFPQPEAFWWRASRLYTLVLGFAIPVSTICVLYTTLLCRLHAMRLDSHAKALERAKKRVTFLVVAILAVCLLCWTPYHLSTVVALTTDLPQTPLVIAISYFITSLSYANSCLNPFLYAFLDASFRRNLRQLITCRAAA

[13] = target: T3, High affinity choline transporter 1 (Homo sapiens, UniProt Q9GZV3); experiment: human choline transporter potentiators, potency – cell-based, 10-point CRC, membrane potential dye, dose response (AID 602376); format: functional
T3 sequence (Q9GZV3 whole entry): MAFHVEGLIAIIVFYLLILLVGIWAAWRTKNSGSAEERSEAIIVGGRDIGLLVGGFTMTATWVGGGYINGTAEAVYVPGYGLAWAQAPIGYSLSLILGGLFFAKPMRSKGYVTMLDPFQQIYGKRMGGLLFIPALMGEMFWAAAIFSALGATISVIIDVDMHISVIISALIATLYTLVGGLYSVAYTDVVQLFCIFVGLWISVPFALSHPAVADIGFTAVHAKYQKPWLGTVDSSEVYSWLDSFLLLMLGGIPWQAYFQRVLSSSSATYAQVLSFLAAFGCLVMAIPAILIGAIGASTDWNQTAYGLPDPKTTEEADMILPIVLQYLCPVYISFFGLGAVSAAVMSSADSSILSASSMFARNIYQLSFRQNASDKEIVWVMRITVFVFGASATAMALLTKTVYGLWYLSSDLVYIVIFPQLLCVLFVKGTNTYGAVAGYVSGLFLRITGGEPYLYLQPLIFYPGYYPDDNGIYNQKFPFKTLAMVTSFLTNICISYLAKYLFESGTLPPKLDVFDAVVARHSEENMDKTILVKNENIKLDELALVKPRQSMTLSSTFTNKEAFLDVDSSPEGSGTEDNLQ

HEK293 [14] = experiment: inhibition of NOD1-driven NF-kB reporter – cell-based, luminescence, uHTS, primary screen (AID 1578); format: functional; details: Homo sapiens
HEK293 [15] = experiment: cells; format: functional, cell-based; details: Homo sapiens
HEK293 [16] = experiment: cells; format: functional, cell-based; details: Homo sapiens; remark: listed apart in the source
HEK293 [17] = experiment: NOD2 signaling inhibitors in MDP-stimulated cells, cell-based, uHTS, luminescence (AID 2001); format: functional; details: Homo sapiens
CAAX prenyl protease 2 [18] = target: T4, CAAX prenyl protease 2 (Saccharomyces cerevisiae S288c, UniProt Q03530); format: biochemical
T4 sequence (Q03530 whole entry): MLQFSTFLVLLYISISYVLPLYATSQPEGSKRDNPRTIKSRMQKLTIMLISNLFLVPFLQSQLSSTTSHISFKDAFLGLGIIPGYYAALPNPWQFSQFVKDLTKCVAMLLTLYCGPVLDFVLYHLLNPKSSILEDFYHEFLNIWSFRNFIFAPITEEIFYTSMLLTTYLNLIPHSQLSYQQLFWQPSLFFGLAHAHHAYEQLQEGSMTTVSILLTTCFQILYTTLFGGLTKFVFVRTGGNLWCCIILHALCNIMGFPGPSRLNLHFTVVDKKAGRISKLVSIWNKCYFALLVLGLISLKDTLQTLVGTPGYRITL

[19] = toxicity toward cultured mammalian cells – cell-based, plate reader, cherry-pick samples, cytotoxicity control, dose response (AID 504397); format: functional
CAAX prenyl protease 2 [20] = target: T4, CAAX prenyl protease 2; experiment: inhibition of Rce1p peptide cleavage – biochemical, plate reader, dry powder retest, dose response (AID 588851)
INS1 = experiment: INS-1E survival protection against cytokine death – cell-based, luminescence, retest, dose response (AID 449756); format: functional; details: Rattus norvegicus;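 also: cell death triggered by IL-1 beta plus TNF-alpha plus IFN-gamma mixture; protective hits raise ATP signal compared with cytokine alone wells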
[21] = target: Disintegrin and metalloproteinase domain-containing protein 17 (Homo sapiens, UniProt P78536); experiment: exosite inhibitors of ADAM17, dose response, biochemical (AID 743260)
Disintegrin and metalloproteinase domain-containing protein 17, sequence (P78536 whole entry, the tested form may be a part): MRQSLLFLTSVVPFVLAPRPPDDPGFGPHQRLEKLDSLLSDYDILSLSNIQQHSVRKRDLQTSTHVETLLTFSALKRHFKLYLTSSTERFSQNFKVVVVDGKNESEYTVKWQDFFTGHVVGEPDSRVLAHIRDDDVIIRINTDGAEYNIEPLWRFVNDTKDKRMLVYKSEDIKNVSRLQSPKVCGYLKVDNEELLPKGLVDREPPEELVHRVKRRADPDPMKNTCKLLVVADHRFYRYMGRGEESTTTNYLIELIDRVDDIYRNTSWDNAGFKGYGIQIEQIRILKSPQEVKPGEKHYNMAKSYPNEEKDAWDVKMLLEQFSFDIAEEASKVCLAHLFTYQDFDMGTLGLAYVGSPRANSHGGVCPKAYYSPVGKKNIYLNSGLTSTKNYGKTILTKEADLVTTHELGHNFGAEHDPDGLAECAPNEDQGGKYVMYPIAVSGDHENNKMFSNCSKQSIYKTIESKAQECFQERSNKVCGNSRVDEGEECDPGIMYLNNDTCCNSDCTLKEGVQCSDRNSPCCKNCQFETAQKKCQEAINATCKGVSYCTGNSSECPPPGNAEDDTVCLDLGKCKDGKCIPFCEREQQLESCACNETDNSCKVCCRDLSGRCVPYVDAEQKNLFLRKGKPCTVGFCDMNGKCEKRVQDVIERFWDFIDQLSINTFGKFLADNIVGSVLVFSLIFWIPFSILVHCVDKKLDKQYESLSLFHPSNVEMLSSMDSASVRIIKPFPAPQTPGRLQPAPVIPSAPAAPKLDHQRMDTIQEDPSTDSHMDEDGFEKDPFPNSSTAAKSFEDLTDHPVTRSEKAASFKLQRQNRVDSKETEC

[22] = inhibition of ADAM10 peptide cleavage – biochemical, FRET peptide substrate, recombinant human ADAM10, selectivity assay for ADAM17 exosite inhibitor project, dose response (AID 743259);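 also: ADAM10 enzyme cleaving a FRET peptide substrate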
Cytochrome P450 3A4 = Cytochrome P450 3A4 (Homo sapiens, UniProt P08684);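 also: CYP3A4 tested as one member of a cytochrome P450 panel screen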
Cytochrome P450 3A4, sequence (P08684 whole entry): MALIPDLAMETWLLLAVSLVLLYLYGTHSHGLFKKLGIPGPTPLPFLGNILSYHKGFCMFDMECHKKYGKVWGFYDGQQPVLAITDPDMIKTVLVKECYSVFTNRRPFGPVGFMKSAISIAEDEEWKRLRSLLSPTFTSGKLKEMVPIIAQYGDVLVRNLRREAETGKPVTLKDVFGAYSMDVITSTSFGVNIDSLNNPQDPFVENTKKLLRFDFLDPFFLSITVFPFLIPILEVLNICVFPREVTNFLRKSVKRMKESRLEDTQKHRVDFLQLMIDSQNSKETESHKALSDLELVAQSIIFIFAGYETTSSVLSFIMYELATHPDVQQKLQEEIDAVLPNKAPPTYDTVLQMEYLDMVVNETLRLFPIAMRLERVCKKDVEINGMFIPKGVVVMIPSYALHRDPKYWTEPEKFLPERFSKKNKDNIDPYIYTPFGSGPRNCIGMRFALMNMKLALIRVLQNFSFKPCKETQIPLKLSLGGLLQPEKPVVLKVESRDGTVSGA

T1 sequence (Q9HC16 whole entry): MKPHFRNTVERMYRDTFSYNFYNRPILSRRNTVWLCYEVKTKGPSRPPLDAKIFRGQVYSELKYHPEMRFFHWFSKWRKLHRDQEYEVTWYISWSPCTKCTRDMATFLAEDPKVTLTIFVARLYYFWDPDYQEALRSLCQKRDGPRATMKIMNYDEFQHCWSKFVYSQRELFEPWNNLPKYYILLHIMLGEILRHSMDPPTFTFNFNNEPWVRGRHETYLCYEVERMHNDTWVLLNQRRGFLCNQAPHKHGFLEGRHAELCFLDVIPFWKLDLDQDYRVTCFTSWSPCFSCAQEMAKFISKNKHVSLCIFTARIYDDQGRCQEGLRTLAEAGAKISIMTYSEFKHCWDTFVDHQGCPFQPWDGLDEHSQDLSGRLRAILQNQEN

COc1ccc(-c2nnc(SC(C)C(=O)Nc3nc(-c4ccc(F)c(F)c4)cs3)[nH]2)cc1 (stereo not drawn)
IC50 [1]: 40.5 µM (inactive) | IC50 [2]: > 99 µM (inactive)

Cc1cc(C)n2nc(C(=O)NCc3ccccc3)c(Br)c2n1
IC50 [3]: 76.8 µM (inactive) | IC50 [4]: > 99 µM (inactive)

Cc1nc2c(sc3nc(N4CCOCC4)c4c(c32)CC(C)(C)OC4)c(-c2ccccc2)c1C(=O)O
AC50 [5]: 0.324 µM (active) | IC50 (Melanocortin receptor 4): 15.5 µM (inactive) | IC50 [6]: > 64.6 µM (inactive)

Cn1c(SC(C(=O)O)c2ccccc2)nc2ccccc2c1=O (stereo not drawn)
Ki (Aurora kinase A): > 2 µM (inactive) | Ki [7]: > 5.01 µM (inactive) | Ki (Aurora kinase B): 0.0794 µM (active)

CN(C)S(=O)(=O)c1ccc(Cl)c(NC(=O)CSc2nnnn2-c2ccc(O)cc2)c1
AC50 [8]: 19.5 µM (active)

Nc1noc2c(CN3CCOCC3)ccc(-c3ccc(NC(=O)Nc4cc(C(F)(F)F)ccc4F)cc3)c12
Ki [9]: > 100 µM (inactive) | Ki [10]: 1 µM (active)

N#CC(C(=O)N1CCCC1)c1c(Cl)cnn(Cc2cccc3ccccc23)c1=O (stereo not drawn)
IC50 [11]: 0.915 µM (active) | IC50 [12]: 0.915 µM (active)

CCOC(=O)c1sc(NC(=O)Cc2ccccc2OC)nc1C
EC50 [13]: 22.4 µM (active)

Cc1cc(C)n(Cc2ccc(NC(=O)c3ccc(COc4ccccc4Br)cc3)cc2)n1
EC50 (HEK293 [14]): 8.42 µM (active) | IC50 (HEK293 [15]): 4.34 µM (active) | IC50 (HEK293 [16]): 13.2 µM (active) | IC50 (HEK293 [17]): 4.26 µM (active) | AC50 [5]: 1.56 µM (active) | AC50 (CAAX prenyl protease 2 [18]): 1.08 µM (active) | AC50 [19]: 48.8 µM (active) | AC50 (CAAX prenyl protease 2 [20]): 9.4 µM (active) | AC50 (INS1): 8.58 µM (active) | IC50 [21]: > 69.5 µM (inactive) | IC50 [22]: > 69.5 µM (inactive) | AC50 (Cytochrome P450 3A4): 14.1 µM (inconclusive)
